Results reported in article PMC4994520 (European journal of medicinal chemistry, 2012).
Like-named read-outs stand apart in the source and are kept apart here.

Assays:
PDE9A = PDE9A (Homo sapiens, UniProt O76083); test: PDE9A inhibition, IMAP fluorescence polarization assay; type: biochemical
PDE1A = PDE1A (Homo sapiens, UniProt P54750); test: PDE1A inhibition, IMAP fluorescence polarization assay; type: biochemical
PDE3A = PDE3A (Homo sapiens, UniProt Q14432); test: PDE3A inhibition, IMAP fluorescence polarization assay; type: biochemical
Sequence of PDE3A (Q14432 whole entry): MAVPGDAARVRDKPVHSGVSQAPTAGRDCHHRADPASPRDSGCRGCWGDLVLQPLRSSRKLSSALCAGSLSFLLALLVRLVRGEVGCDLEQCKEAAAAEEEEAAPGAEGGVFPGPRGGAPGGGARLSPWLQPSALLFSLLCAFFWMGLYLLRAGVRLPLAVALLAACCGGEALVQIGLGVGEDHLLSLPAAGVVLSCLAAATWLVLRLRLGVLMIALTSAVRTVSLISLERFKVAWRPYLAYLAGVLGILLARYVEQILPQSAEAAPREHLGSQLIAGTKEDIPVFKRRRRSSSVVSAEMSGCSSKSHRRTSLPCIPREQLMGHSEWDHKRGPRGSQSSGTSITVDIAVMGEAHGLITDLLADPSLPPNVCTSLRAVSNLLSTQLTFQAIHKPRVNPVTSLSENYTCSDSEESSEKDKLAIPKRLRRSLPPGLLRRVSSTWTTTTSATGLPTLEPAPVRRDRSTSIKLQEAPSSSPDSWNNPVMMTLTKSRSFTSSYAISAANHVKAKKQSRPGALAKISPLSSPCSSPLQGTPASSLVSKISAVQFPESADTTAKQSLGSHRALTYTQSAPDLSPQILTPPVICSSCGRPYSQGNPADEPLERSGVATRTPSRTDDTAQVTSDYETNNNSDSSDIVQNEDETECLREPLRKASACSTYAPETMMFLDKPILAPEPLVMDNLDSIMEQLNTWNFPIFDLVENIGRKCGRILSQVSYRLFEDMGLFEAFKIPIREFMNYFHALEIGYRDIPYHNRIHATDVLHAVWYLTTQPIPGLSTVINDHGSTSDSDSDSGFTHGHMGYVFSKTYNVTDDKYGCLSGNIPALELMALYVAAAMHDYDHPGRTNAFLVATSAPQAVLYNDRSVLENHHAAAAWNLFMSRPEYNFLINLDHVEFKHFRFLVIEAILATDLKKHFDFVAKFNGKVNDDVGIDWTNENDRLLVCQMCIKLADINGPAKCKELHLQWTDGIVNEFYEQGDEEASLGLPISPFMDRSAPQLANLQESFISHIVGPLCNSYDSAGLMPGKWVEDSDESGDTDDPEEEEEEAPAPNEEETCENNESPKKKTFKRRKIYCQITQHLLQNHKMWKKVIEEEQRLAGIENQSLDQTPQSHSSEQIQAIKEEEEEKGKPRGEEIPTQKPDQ

PDE3B = PDE3B (Homo sapiens, UniProt Q13370); test: PDE3B inhibition, IMAP fluorescence polarization assay; type: biochemical
Sequence of PDE3B (Q13370 whole entry): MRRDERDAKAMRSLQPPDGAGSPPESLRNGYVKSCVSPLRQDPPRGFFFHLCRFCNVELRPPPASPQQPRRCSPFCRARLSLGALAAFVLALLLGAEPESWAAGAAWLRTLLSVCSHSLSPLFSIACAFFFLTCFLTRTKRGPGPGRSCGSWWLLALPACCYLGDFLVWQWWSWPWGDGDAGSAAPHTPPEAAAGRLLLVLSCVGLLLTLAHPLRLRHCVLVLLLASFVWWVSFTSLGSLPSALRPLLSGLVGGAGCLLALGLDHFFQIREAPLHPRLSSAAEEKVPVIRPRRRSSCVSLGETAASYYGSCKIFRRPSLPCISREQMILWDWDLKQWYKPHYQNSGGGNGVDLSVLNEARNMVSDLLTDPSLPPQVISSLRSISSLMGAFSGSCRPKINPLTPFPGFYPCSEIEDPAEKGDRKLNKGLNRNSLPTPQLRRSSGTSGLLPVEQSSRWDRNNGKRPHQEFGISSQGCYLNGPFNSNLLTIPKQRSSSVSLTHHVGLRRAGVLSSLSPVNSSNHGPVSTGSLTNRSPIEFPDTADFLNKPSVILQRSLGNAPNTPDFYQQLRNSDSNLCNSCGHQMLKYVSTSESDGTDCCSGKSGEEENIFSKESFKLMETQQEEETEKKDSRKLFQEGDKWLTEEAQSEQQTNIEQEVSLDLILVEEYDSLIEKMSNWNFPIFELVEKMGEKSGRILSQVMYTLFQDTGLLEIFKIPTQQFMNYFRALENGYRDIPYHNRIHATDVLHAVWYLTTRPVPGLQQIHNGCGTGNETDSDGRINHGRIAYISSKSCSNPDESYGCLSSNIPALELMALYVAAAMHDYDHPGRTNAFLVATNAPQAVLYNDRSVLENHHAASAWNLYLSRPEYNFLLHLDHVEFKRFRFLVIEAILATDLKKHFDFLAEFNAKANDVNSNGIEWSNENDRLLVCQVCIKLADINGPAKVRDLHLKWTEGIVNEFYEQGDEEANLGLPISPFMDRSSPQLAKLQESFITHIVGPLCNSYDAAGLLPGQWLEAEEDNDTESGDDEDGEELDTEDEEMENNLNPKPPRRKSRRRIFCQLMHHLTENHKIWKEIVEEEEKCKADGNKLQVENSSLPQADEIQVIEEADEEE

PDE11A = PDE11A (Homo sapiens, UniProt Q9HCR9); test: PDE11A inhibition, IMAP fluorescence polarization assay; type: biochemical; settings: for selectivity profile (selectivity index) PDE5 versus PDE11: cGMP as the substrate
Sequence of PDE11A (Q9HCR9 whole entry): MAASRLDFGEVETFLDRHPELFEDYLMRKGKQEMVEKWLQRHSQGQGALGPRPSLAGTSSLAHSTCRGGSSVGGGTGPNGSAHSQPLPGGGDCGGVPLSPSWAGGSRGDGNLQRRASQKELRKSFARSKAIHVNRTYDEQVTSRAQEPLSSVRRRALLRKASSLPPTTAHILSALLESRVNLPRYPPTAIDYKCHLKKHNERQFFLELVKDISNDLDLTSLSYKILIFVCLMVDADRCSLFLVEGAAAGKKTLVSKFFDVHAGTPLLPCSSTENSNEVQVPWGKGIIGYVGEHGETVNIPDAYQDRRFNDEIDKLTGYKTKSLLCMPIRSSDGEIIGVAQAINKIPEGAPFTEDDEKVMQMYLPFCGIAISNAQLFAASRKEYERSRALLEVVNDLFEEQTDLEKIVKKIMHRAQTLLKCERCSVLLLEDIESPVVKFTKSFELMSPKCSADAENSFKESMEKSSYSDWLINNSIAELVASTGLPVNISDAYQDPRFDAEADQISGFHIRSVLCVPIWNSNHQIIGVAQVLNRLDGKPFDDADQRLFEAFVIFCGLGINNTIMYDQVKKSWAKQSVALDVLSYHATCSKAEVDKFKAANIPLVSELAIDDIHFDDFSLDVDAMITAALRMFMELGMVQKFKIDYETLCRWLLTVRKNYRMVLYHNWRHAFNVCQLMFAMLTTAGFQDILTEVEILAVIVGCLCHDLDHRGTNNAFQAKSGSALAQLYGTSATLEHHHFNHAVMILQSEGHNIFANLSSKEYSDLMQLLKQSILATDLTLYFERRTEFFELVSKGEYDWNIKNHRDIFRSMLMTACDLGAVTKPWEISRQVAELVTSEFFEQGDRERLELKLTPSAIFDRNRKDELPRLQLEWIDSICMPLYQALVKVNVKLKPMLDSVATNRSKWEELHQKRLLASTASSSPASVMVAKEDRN

human PDE5 [1] = molecular target: T1, human PDE5 (Homo sapiens, UniProt O76074); test: PDE5 inhibition, IMAP fluorescence polarization phosphodiesterase assay; type: biochemical; settings: for inhibition at 10 µM: read-out: % PDE5 inhibition at 10 μM
PDE2A = PDE2A (Homo sapiens, UniProt O00408); test: PDE2A inhibition, IMAP fluorescence polarization assay; type: biochemical
PDE10A = PDE10A (Homo sapiens, UniProt Q9Y233); test: PDE10A inhibition, IMAP fluorescence polarization assay; type: biochemical
Sequence of PDE10A (Q9Y233 290-1055 limits assumed): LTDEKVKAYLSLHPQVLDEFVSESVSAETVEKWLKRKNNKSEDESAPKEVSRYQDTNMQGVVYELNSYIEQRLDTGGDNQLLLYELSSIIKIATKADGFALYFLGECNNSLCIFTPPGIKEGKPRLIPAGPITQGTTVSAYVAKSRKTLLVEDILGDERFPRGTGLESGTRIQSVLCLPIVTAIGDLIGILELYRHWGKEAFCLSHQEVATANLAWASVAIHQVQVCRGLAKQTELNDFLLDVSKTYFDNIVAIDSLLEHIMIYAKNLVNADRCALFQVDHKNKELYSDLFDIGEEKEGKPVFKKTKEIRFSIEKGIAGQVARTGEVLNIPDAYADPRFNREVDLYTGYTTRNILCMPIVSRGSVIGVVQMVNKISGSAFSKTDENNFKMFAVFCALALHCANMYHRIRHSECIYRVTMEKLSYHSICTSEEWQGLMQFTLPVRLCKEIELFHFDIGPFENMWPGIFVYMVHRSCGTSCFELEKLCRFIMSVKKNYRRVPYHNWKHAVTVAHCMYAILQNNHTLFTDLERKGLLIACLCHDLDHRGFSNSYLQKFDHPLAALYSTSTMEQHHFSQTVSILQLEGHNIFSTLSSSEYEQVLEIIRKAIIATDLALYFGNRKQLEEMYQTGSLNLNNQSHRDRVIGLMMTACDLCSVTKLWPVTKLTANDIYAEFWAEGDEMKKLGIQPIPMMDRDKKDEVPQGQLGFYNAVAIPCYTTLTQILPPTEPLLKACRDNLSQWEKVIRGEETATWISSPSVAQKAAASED

human PDE5 [2] = molecular target: T1, human PDE5; settings: tadalafil and earlier analogues, Table 1; cited from earlier work
[3] = read-out: PDE1A inhibition IC50 μM, substrate cGMP
[4] = read-out: PDE3A inhibition IC50 μM, substrate cGMP
[5] = read-out: PDE3B inhibition IC50 μM, substrate cGMP
[6] = PDE11A inhibition IC50 μM, substrate cAMP
[7] = PDE11A inhibition IC50 μM, substrate cGMP
[8] = read-out: PDE2A inhibition IC50 μM, substrate cGMP
[9] = PDE10A inhibition IC50 μM, substrate cAMP
[10] = PDE10A inhibition IC50 μM, substrate cGMP

Sequence of PDE9A (O76083 whole entry): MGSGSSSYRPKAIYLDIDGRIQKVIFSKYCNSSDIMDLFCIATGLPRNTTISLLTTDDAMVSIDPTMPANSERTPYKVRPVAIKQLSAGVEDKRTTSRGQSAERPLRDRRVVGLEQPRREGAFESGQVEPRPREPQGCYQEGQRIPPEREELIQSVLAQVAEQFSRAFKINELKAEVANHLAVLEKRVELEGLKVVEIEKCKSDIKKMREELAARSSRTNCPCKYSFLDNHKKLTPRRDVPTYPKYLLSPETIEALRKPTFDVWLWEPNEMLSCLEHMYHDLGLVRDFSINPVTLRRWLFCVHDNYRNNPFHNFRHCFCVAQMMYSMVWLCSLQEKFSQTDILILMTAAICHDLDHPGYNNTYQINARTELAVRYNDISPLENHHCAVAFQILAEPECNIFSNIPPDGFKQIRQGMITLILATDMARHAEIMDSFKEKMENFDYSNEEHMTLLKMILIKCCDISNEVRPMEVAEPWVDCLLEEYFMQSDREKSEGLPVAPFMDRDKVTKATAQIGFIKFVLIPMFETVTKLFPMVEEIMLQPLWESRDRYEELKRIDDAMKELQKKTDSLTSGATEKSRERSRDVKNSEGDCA
Sequence of PDE1A (P54750 whole entry): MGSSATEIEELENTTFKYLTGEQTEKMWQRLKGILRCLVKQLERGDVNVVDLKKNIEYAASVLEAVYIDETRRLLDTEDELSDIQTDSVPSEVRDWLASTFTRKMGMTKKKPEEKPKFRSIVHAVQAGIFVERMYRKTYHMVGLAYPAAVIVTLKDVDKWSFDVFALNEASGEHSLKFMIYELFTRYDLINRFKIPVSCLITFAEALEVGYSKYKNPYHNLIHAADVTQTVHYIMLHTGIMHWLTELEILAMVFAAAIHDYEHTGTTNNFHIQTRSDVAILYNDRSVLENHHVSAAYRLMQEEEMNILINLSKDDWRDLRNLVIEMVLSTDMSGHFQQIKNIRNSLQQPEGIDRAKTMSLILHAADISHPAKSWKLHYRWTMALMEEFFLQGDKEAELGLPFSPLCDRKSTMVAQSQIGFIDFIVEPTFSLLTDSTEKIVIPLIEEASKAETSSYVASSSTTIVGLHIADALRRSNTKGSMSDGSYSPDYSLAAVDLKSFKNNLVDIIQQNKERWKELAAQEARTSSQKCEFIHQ

SMILES | IC50 (PDE9A) | IC50 (PDE1A) | IC50 (PDE1A; [3]) | IC50 (PDE3A) | IC50 (PDE3A; [4]) | IC50 (PDE3B) | IC50 (PDE3B; [5]) | IC50 (PDE11A; [6]) | IC50 (PDE11A; [7]) | selectivity profile (selectivity index) PDE5 versus PDE11 (PDE11A) | IC50 (human PDE5 [1]) | inhibition at 10 µM (human PDE5 [1]) | IC50 (PDE2A) | IC50 (PDE2A; [8]) | IC50 (PDE10A; [9]) | IC50 (PDE10A; [10]) | also measured
CCN1C(=O)[C@@H]2Cc3c([nH]c4ccccc34)[C@@H](c3ccc(Br)cc3)N2C1=O [Compound 8, (5R,11aS)-5-(4-Bromophenyl)-2-ethyl-5,6,11,11a-tetrahydro-1H-imidazo[1′,5′:1,6]pyrido[3,4-b]indole-1,3(2H)-dione] | > 50 µM | > 50 µM | > 50 µM | > 50 µM | > 50 µM | > 50 µM | > 50 µM | 44 µM | 35.7 µM | 700 | 0.051 µM | 101% | > 50 µM | > 50 µM | > 50 µM | > 50 µM | –
CN1CC(=O)N2[C@H](c3ccc(Br)cc3)c3[nH]c4ccccc4c3C[C@@H]2C1=O [Compound 25, (6R,12aR)-6-(4-Bromophenyl)-2-methyl-2,3,6,7,12,12a-hexahydropyrazino [1′,2′:1,6]pyrido[3,4-b]indole-1,4-dione] | > 50 µM | > 50 µM | > 50 µM | > 50 µM | > 50 µM | > 50 µM | > 50 µM | 0.6 µM | 0.27 µM | 14 | 0.019 µM | 98% | > 50 µM | > 50 µM | > 50 µM | 41.7 µM | –
CN1CC(=O)N2[C@H](c3ccc(Br)cc3)c3[nH]c4ccccc4c3C[C@H]2C1=O [Compound 28, (6R,12aS)-6-(4-Bromophenyl)-2-methyl-2,3,6,7,12,12a-hexahydropyrazino [1′,2′:1,6]pyrido[3,4-b]indole-1,4-dione] | > 50 µM | > 50 µM | > 50 µM | > 50 µM | > 50 µM | > 50 µM | > 50 µM | 1.3 µM | 1.13 µM | 94 | 0.012 µM | 91% | > 50 µM | > 50 µM | > 50 µM | > 50 µM | –
CCN1CC(=O)N2[C@H](c3ccc(Br)cc3)c3[nH]c4ccccc4c3C[C@@H]2C1=O [Compound 29, (6R,12aR)-2-Ethyl-6-(4-bromophenyl)-2,3,6,7,12,12a-hexahydropyrazino [1′,2′:1,6]pyrido[3,4-b]indole-1,4-dione] | > 50 µM | > 50 µM | > 50 µM | > 50 µM | > 50 µM | > 50 µM | > 50 µM | 0.3 µM | 0.27 µM | 90 | 0.003 µM | 96% | > 50 µM | > 50 µM | 26.1 µM | 14.7 µM | times improved activity compared to five member congener 5 (human PDE5 [1]; PDE5 IC50, 29 versus 5): 1000 times
CCCCN1CC(=O)N2[C@H](c3ccc(Br)cc3)c3[nH]c4ccccc4c3C[C@@H]2C1=O [Compound 33] | – | – | > 50 µM | – | > 50 µM | – | > 50 µM | – | – | 67 | – | – | – | > 50 µM | – | – | IC50 (PDE9A; read-out: PDE9A inhibition IC50 μM, substrate cGMP): > 50 µM; IC50 (PDE1A; read-out: PDE1A inhibition IC50 μM, substrate cAMP): > 50 µM; IC50 (PDE3A; read-out: PDE3A inhibition IC50 μM, substrate cAMP): > 50 µM; IC50 (PDE3B; read-out: PDE3B inhibition IC50 μM, substrate cAMP): > 50 µM; IC50 (PDE11A; read-out: PDE11A inhibition IC50 μM, substrate cAMP): 1.2 µM; IC50 (PDE11A; read-out: PDE11A inhibition IC50 μM, substrate cGMP): 0.6 µM; % PDE5 inhibition at 10 μM (human PDE5 [1]; 10 μM, triplicate): 87%; IC50 (human PDE5 [1]; read-out: IC50 μM (PDE5), 8 concentrations 1 nM–10 μM): 0.009 µM; IC50 (human PDE5 [1]; read-out: PDE5A inhibition IC50 μM, substrate cAMP (as printed in sub-head)): 0.009 µM; IC50 (PDE2A; read-out: PDE2A inhibition IC50 μM, substrate cAMP): > 50 µM; IC50 (PDE10A; read-out: PDE10A inhibition IC50 μM, substrate cAMP): > 50 µM; IC50 (PDE10A; read-out: PDE10A inhibition IC50 μM, substrate cGMP): > 50 µM
CC(C)(C)N1CC(=O)N2[C@@H](c3ccc(Br)cc3)c3[nH]c4ccccc4c3C[C@H]2C1=O [Compound 39, (6S,12aS)-6-(4-Bromophenyl)-2-tert-butyl-2,3,6,7,12,12a-hexahydropyrazino[1′,2′:1,6]pyrido[3,4-b]indole-1,4-dione] | – | – | – | – | – | – | – | – | – | – | – | 12% | – | – | – | – | –
CC(C)(C)N1CC(=O)N2[C@H](c3ccc(Br)cc3)c3[nH]c4ccccc4c3C[C@H]2C1=O [Compound 40, (6R,12aS)-6-(4-Bromophenyl)-2-tert-butyl-2,3,6,7,12,12a-hexahydropyrazino[1′,2′:1,6]pyrido[3,4-b]indole-1,4-dione] | – | – | – | – | – | – | – | – | – | – | – | 21% | – | – | – | – | –
CN1CC(=O)N2[C@H](c3ccc4c(c3)OCO4)c3[nH]c4ccccc4c3C[C@@H]2C1=O [Compound I, tadalafil, reference compound] | > 50 µM | > 50 µM | > 50 µM | > 50 µM | > 50 µM | > 50 µM | > 50 µM | – | – | – | – | – | > 50 µM | > 50 µM | > 50 µM | > 50 µM | % PDE5 inhibition at 10 μM (human PDE5 [2]): 100%
